Experiment [1] has as its system activated T cells (PMBCs). The experiment in a line: IFN-γ and TNF-α levels ex vivo following T cell activation in vivo (peptidoglycan-polysaccharide polymer injection). On the set-up: species or system Lewis rats. To be noted: 40 mg/kg oral gavage, days 28-44; PMBCs isolated day 44, anti-CD3, 72 h, ELISA. Here is the method:
The effect of methods and compounds of the present invention on INF-γ and TNF-α expression following in vivo activation was examined as follows. In these experiments, in vivo T cell activation was first induced by eliciting an inflammatory reaction in rats by injection of peptidoglycan-polysaccharide polymers. An exemplary compound of the present invention was then administered to the animals. T cells were then isolated from the blood of the animals and analyzed ex vivo for IFN-γ and TNF-α secretion. Female Lewis rats (150-200 gm; Harlan, Indianapolis, Ind.) were injected intra-peritoneal with peptidoglycan-polysaccharide polymers (15 μg/gm body weight, Lee Laboratories, Grayson, Ga.). Animals were administered Compound A (40 mg/kg) via oral gavage on days 28, 30, 32, 35, 37, 39, 42, and 44 following peptidoglycan-polysaccharide polymer injection. Peripheral blood mononuclear cells (PMBCs) were isolated from the blood of the animals by Ficol gradient (BD Vacutainer CPT tubes) on day 44. Equal numbers of PMBCs (50,000 cells/well) were plated on culture dishes coated with anti-CD3 antibodies in RPMI-1640 media containing 10% serum, and the cells were cultured for 72 h. Supernatants from the cell cultures were tested for IFN-γ and TNF-α levels using commercially-available ELISA assays (R&D).
A general note: In an ELISA, binding on a coated surface is turned into a signal by an enzyme label.

Experiment [2] concerns naïve T helper cells. Put plainly: Th1 cell differentiation: IFN-γ secretion after second and third TCR stimulation following washout. It is filed as cell-based, human. Here is the method:
The effectiveness of compounds of the present invention at reducing Th1 differentiation was examined as follows. Th1 differentiation was induced by culturing anti-CD3 stimulated T cells in the presence of exogenous IL-12. Human cord blood naive T helper cells (AllCells LLC, Emeryville, Calif.) were stimulated (i.e., T cell receptor (TCR) stimulation) by seeding into 96-well culture dishes coated with 5 μg/ml anti-CD3 antibody (clone UCHT1, R&D Systems, Minneapolis, Minn.), and 5 μg/ml anti-CD28 antibody (clone ANC28.1/D10, Ancell Corporation, Bayport, Minn.), and cultured at 37° C., 5% CO2 in RPMI-1640 (Mediatech Inc., Hemdon, Va.) containing 1% FBS, 1 U/ml penicillin-1 μg/ml streptomycin (Invitrogen Corporation, Carlsbad, Calif.), and 50 U/ml IL-2 (Roche Diagnostics Corporation, Indianapolis, Ind.). At time of seeding, cells were cultured with media alone or with media containing 2 ng/ml IL-12 and 10 μg/ml anti-IL-4 to induce Th1 cell differentiation. […]
The cells were then collected, washed twice with RPMI-1640 media containing 1% FBS, and counted before equal numbers of cells per well were re-stimulated (second T cell receptor (TCR) stimulation following washout of all prior treatments) by re-seeding the cells into 96-well culture dishes coated with 5 μg/ml anti-CD3 antibody and 5 μg/ml anti-CD28 antibody. […] After 24 hours the conditioned media from the cells was collected and analyzed for IFN-γ levels using a MS2400 Tissue Culture Kit (MesoScale Technologies, Gaithersburg, Md.) according to the manufacturer's instructions.
Thirteen days after the second TCR stimulation described above, the cells were collected, washed twice with RPMI-1640 media containing 1% FBS, and counted before equal numbers of cells per well were stimulated a third time (third TCR stimulation) by re-seeding into 96-well culture dishes coated with 5 μg/ml anti-CD3 antibody and 5 μg/ml anti-CD28 antibody. […]
In another series of experiments, the effectiveness of compounds of the present invention at reducing Th1 differentiation was determined. […]

In experiment [3] the test system is naïve CD4+T Cells. Put plainly: T helper cell synthesis of pro-inflammatory (IFN-γ) and anti-inflammatory (IL-5) cytokines. It is filed as cell-based, human. To be noted: seven days. Here is the method: To examine the effect of compounds and methods of the present invention on T helper cell synthesis of pro-inflammatory and anti-inflammatory cytokines, the following studies were performed. Human cord blood naive CD4+T Cells (AllCells LLC, Emeryville, Calif.) were stimulated (i.e., T cell receptor (TCR) stimulation) by seeding into 96-well culture dishes coated with 5 μg/ml anti-CD3 antibody (clone UCHT1, R&D Systems, Minneapolis, Minn.), and 5 μg/ml anti-CD28 antibody (clone ANC28.1/D10, Ancell Corporation, Bayport, Minn.), and cultured at 37° C., 5% CO2 in RPMI-1640 (Mediatech Inc., Hemdon, Va.) containing 1% FBS, 1 U/ml penicillin-1 μg/ml streptomycin (Invitrogen Corporation, Carlsbad, Calif.), and 50 U/ml IL-2 (Roche Diagnostics Corporation, Indianapolis, Ind.). At time of seeding, cells were treated according to one of the following conditions: 1) media alone (Con); 2) 10 ng/ml IL4, 10 μg/ml anti-IFN-γ antibody, and 10 μg/ml anti-IL-12 antibody (R&D Systems, Minneapolis, Minn.); or 3) 2 ng/ml IL-12 and 10 μg/ml anti-IL-4 antibody. […] The cell-conditioned media was collected and analyzed for IFN-γ levels (a pro-inflammatory cytokine) and IL-5 levels (an anti-inflammatory cytokine) using MS2400 Human Tissue Culture Kits (MesoScale Technologies, Gaithersburg, Md.) according to the manufacturer's instructions.

Each structure is given as a SMILES string.

As for `Cc1nc(C(=O)NCC(=O)O)c(O)c2ccc(Oc3ccccc3)cc12` [Compound A, [(4-Hydroxy-1-methyl-7-phenoxy-isoquinoline-3-carbonyl)-amino]-acetic acid], in experiment [1], the “IFN-γ secretion from the activated T cells, measured ex vivo” value is recorded as “effective at decreasing” and the “TNF-α secretion from the activated T cells, measured ex vivo” value was “effective at decreasing”. Also, the “IFN-γ secretion following the second TCR stimulation” value in experiment [2] (compound present only during first TCR stimulation (seven days) with IL-12, 24 hours after re-stimulation) is “reduced IFN-γ secretion”. In addition, the “IFN-γ secretion after a third TCR stimulation” value in experiment [2] (compound present only during first TCR stimulation with IL-12, thirteen days after the second stimulation, 24 hours) was “decreased IFN-γ secretion”. Further, in experiment [3] (2 ng/ml IL-12 and anti-IL-4 antibody), the “IL-12-mediated increase in IFN-γ secretion” value is listed as “reduced the IL-12-mediated increase in IFN-γ secretion”. In experiment [3] (10 ng/ml IL4, anti-IFN-γ and anti-IL-12 antibody, vs IL-4 alone), the IL-5 levels result is “increased IL-5 levels”.

The values above are taken from patent US20100144737A1, “METHODS FOR INHIBITING T HELPER CELL DIFFERENTIATION” (FibroGen, Inc., priority 2008, published 2010).
